Laboratory results: the supplement of paper PMC8882468
Several values for one entry are separate records, joined by “and”; a condition that tells them apart may be missing. Identical values can stand only once.

What was measured:
Experiment in all cases: CTG-3D luminescence at 96 h relative to day-0 seeding control (ratio to day 0); higher = more growth / less cytotoxicity; PDxO 3D drug screen (set 2), 96 h, CTG-3D normalised to day-0 seeding control.
MDA-MB-231 = test system: MDA-MB-231
HCI-019 = test system: HCI-019 (organoid from a triple-negative breast cancer xenograft)
HCI-003.E2 = test system: HCI-003.E2 (organoid from an ER-positive breast cancer xenograft)
HCI-025 = test system: HCI-025 (organoid from a breast cancer xenograft)
HCI-024 = test system: HCI-024 (organoid from a breast cancer xenograft)
HCI-008 = test system: HCI-008 (organoid from a HER2-enriched breast cancer xenograft)

COc1cccc2c1C(=O)c1c(O)c3c(c(O)c1C2=O)C[C@@](O)(C(=O)CO)C[C@@H]3O[C@H]1C[C@H](N)[C@@H](O)[C@H](C)O1 [epirubicin]
CTG-3D luminescence at 96 h
Conditions | 12.5 pM | 0.00025 µM | 0.005 µM | 0.1 µM | 1 µM | 10 µM | 100 µM | 625 fM
HCI-003.E2 | 2.55 | 2.48 | 2.34 | 2.23 | 0.712 | 0.0173 | 0.000274 | 3.06
MDA-MB-231 | 5.46 and 4.99 | 5.52 and 4.95 | 4.84 and 4.76 | 3.26 and 3.33 | 0.232 and 0.543 | 0.504 and 0.188 | -0.0125 and -0.0119 | 5.48 and 5.03

CTG-3D luminescence at 96 h
Conditions | 12.5 pM | 0.00025 µM | 0.005 µM | 0.1 µM | 1 µM | 10 µM | 100 µM | 625 fM
HCI-008, days in culture: 325 | 1.57 | 2.58 | 1.67 | 1.91 | 0.784 | 0.192 | -0.00523 | 1.81
HCI-008, days in culture: 340 | 1.38 | 1.84 | 1.52 | 1 | 0.612 | – | -0.0051 | 1.34
HCI-008, days in culture: 354 | 1.58 | 0.918 | 1.45 | 0.732 | 0.524 | 0.2 | 0.00146 | 1.46
HCI-008, days in culture: 382 | 1.97 | 1.33 | 1.3 | 1.6 | 0.222 | 0.161 | -0.000657 | 1.49
HCI-019, days in culture: 173 | 2.56 | 0.82 | 0.796 | 0.682 | 0.176 | 0.0215 | -0.00415 | 2.04
HCI-019, days in culture: 194 | 1.08 | 1.73 | 0.897 | 0.514 | 0.126 | 0.00997 | -0.00363 | 2.03
HCI-019, days in culture: 215 | 1.08 | 1.32 | 1.32 | 0.384 | 0.205 | 0.0145 | -0.000778 | 1.97
HCI-024, days in culture: 202 | 1.44 | 1.41 | 0.402 | 0.943 | 0.189 | 0.201 | 0.0124 | 0.718
HCI-024, days in culture: 231 | 1.26 | 1.41 | 1.2 | 0.91 | 0.331 | 0.141 | 0.0266 | 1.79
HCI-024, days in culture: 254 | 1.76 | 2 | 0.967 | 0.838 | 0.196 | 0.165 | 0.0227 | 1.93
HCI-025, days in culture: 175 | 1.67 | 1.16 | 0.961 | 0.846 | 0.14 | 0.0198 | -0.00458 | 1.31
HCI-025, days in culture: 189 | 2.65 | 2.38 | 1.58 | 1.14 | 0.108 | 0.00904 | -0.0017 | 2.54
HCI-025, days in culture: 212 | 1.54 | 2.81 | 3.5 | 1.27 | 0.125 | 0.0162 | -0.000834 | 1.07
HCI-025, days in culture: 224 | 1.88 | 2.11 | 1.45 | 0.576 | 0.0783 | 0.0108 | -0.00319 | 1.79
